ChEMBL document CHEMBL1671651, “Azithromycin in Pseudomonas aeruginosa biofilms: bactericidal activity and selection of nfxB mutants” (2009)
Activity calls are given as the source filed them.

What was measured:
Pseudomonas aeruginosa [1] = test: Antimicrobial activity against nfxB gene-deficient Pseudomonas aeruginosa PAONB assessed as increase in viable cells at 0.5 to 4 ug/ml after 24 hrs relative to wild-type; type: functional
Pseudomonas aeruginosa [2] = test: Bactericidal activity against Pseudomonas aeruginosa PAO1 biofilm assessed as reduction in bacterial load at => 4 ug/ml upto 7 days; type: functional, organism-based
Pseudomonas aeruginosa [3] = test: Bactericidal activity against mutS::lox-deficient Pseudomonas aeruginosa PAOMS biofilm assessed as increase in viable cells at day 7 relative to wild-type; type: functional
Pseudomonas aeruginosa [4] = test: Antimicrobial activity against mutS::lox-deficient Pseudomonas aeruginosa PAOMS planktonic cells by microdilution method; type: functional
Pseudomonas aeruginosa [5] = test: Bactericidal activity against mutS::lox-deficient Pseudomonas aeruginosa PAOMS biofilm assessed as reduction in bacterial load at 256 ug/ml for 7 days measured on day 1; type: functional
Pseudomonas aeruginosa [6] = test: Bactericidal activity against mucA::lox, mutS::lox-deficient Pseudomonas aeruginosa PAOMSA biofilm assessed as reduction in bacterial load at 256 ug/ml for 7 days measured on day 1; type: functional
Pseudomonas aeruginosa [7] = test: Antimicrobial activity against mucA::lox, mutS::lox-deficient Pseudomonas aeruginosa PAOMSA planktonic cells by microdilution method; type: functional
Pseudomonas aeruginosa [8] = test: Bactericidal activity against mucA::lox, mutS::lox-deficient Pseudomonas aeruginosa PAOMSA biofilm assessed as increase in viable cells at 4 ug/ml for 4 days; type: functional, organism-based
Pseudomonas aeruginosa [9] = test: Bactericidal activity against mucA::lox, mutS::lox-deficient Pseudomonas aeruginosa PAOMSA biofilm assessed as increase in viable cells at 16 ug/ml; type: functional, organism-based
Pseudomonas aeruginosa [10] = test: Antimicrobial activity against mexD gene-deficient Pseudomonas aeruginosa […] assessed as increase in viable cells at 0.5 to 4 ug/ml after 24 hrs relative to wild-type; type: functional
Pseudomonas aeruginosa [11] = test: Bactericidal activity against mutS::lox-deficient Pseudomonas aeruginosa PAOMS biofilm assessed as increase in viable cells at 4 ug/ml for 7 days; type: functional, organism-based
Pseudomonas aeruginosa [12] = test: Bactericidal activity against mucA::lox, mutS::lox-deficient Pseudomonas aeruginosa PAOMSA biofilm assessed as increase in viable cells relative to […]; type: functional
Pseudomonas aeruginosa [13] = test: Bactericidal activity against mucA::lox, mutS::lox-deficient Pseudomonas aeruginosa PAOMSA biofilm assessed as increase in viable cells at 4 ug/ml for 7 days; type: functional, organism-based
Pseudomonas aeruginosa [14] = test: Bactericidal activity against mutS::lox-deficient Pseudomonas aeruginosa PAOMS biofilm assessed as increase in viable cells at 4 ug/ml for 4 days; type: functional, organism-based
Pseudomonas aeruginosa [15] = test: Bactericidal activity against Pseudomonas aeruginosa PAO1 biofilm assessed as reduction in bacterial load at 0.5 ug/ml for 7days measured on day 1; type: functional
Pseudomonas aeruginosa [16] = test: Bactericidal activity against Pseudomonas aeruginosa PAO1 biofilm assessed as reduction in bacterial load at 256 ug/ml for 7 days measured on day 1; type: functional
Pseudomonas aeruginosa [17] = test: Antimicrobial activity against mucA::lox-deficient Pseudomonas aeruginosa PAOMA planktonic cells by microdilution method; type: functional
Pseudomonas aeruginosa [18] = test: Bactericidal activity against mutS::lox-deficient Pseudomonas aeruginosa PAOMS biofilm assessed as reduction in bacterial load at 0.5 ug/ml for 7 days measured on day 1; type: functional
Pseudomonas aeruginosa [19] = test: Bactericidal activity against mucA::lox-deficient Pseudomonas aeruginosa PAOMA biofilm assessed as reduction in bacterial load at => 4 ug/ml upto 7 days; type: functional, organism-based
Pseudomonas aeruginosa [20] = test: Antimicrobial activity against Pseudomonas aeruginosa PAO1 planktonic cells by microdilution method; type: functional
Pseudomonas aeruginosa [21] = test: Antimicrobial activity against mutS::lox-deficient Pseudomonas aeruginosa PAOMSB biofilm harboring nfxB T77C mutant gene selected at 4 ug/ml of azithromycin after 6 passages by Etest method; type: functional
Pseudomonas aeruginosa [22] = test: Antimicrobial activity against mexD::lox-deficient Pseudomonas aeruginosa PAOMxD biofilm by Etest method; type: functional
Pseudomonas aeruginosa [23] = test: Antimicrobial activity against mucA::lox, mutS::lox-deficient Pseudomonas aeruginosa PAOMSAB biofilm harboring nfxB C89T mutant gene selected at 4 ug/ml of azithromycin after 6 passages by Etest method; type: functional
Pseudomonas aeruginosa [24] = test: Antimicrobial activity against mucA::lox, mutS::lox-deficient Pseudomonas aeruginosa PAOMSAA biofilm harboring nfxB T86C mutant gene selected at 4 ug/ml of azithromycin after 2 passages by Etest method; type: functional
Pseudomonas aeruginosa [25] = test: Antimicrobial activity against mucA::lox, mutS::lox-deficient Pseudomonas aeruginosa PAOMSAB biofilm harboring nfxB T544C mutant gene selected at 4 ug/ml of azithromycin after 1 passages by Etest method; type: functional
Pseudomonas aeruginosa [26] = test: Antimicrobial activity against mutS::lox-deficient Pseudomonas aeruginosa PAOMSA biofilm harboring nfxB T533C mutant gene selected at 4 ug/ml of azithromycin after 2 passages by Etest method; type: functional
Pseudomonas aeruginosa [27] = test: Antimicrobial activity against mucA::lox-deficient Pseudomonas aeruginosa PAOMA biofilm by Etest method; type: functional
Pseudomonas aeruginosa [28] = test: Antimicrobial activity against Pseudomonas aeruginosa PAO1 A biofilm harboring nfxB T248C mutant gene selected at 4 ug/ml of azithromycin after 4 passages by Etest method; type: functional
Pseudomonas aeruginosa [29] = test: Antimicrobial activity against mutS::lox-deficient Pseudomonas aeruginosa PAOMSB biofilm harboring deletion od C534 in nfxB mutant gene selected at 4 ug/ml of azithromycin after 2 passages by Etest method; type: functional
Pseudomonas aeruginosa [30] = test: Antimicrobial activity against mutS::lox-deficient Pseudomonas aeruginosa PAOMSA biofilm harboring nfxB T86C mutant gene selected at 4 ug/ml of azithromycin after 4 passages by Etest method; type: functional
Pseudomonas aeruginosa [31] = test: Antimicrobial activity against Pseudomonas aeruginosa PAO1 biofilm by Etest method; type: functional
Pseudomonas aeruginosa [32] = test: Antimicrobial activity against mutS::lox-deficient Pseudomonas aeruginosa PAOMSA biofilm harboring nfxB G539A mutant gene selected at 4 ug/ml of azithromycin after 6 passages by Etest method; type: functional
Pseudomonas aeruginosa [33] = test: Antimicrobial activity against mutS::lox,nfxB gene-deficient Pseudomonas aeruginosa PAOMSNB biofilm by Etest method; type: functional
Pseudomonas aeruginosa [34] = test: Antimicrobial activity against mutS::lox,mexD::lox-deficient Pseudomonas aeruginosa PAOMSMxD biofilm by Etest method; type: functional
Pseudomonas aeruginosa [35] = test: Antimicrobial activity against Pseudomonas aeruginosa PAO1 A biofilm harboring deletion mutation at nucleotide 231-244 in nfxB gene selected at 1 ug/ml of azithromycin after 4 passages by Etest method; type: functional
Pseudomonas aeruginosa [36] = test: Antimicrobial activity against nfxB gene-deficient Pseudomonas aeruginosa PAONB biofilm by Etest method; type: functional
Pseudomonas aeruginosa [37] = test: Antimicrobial activity against mucA::lox, mutS::lox-deficient Pseudomonas aeruginosa PAOMSAB biofilm harboring nfxB T86C mutant gene selected at 4 ug/ml of azithromycin after 2 passages by Etest method; type: functional
Pseudomonas aeruginosa [38] = test: Antimicrobial activity against mutS::lox-deficient Pseudomonas aeruginosa PAOMSA biofilm harboring nfxB C116T mutant gene selected at 1 ug/ml of azithromycin after 1 passages by Etest method; type: functional
Pseudomonas aeruginosa [39] = test: Antimicrobial activity against Pseudomonas aeruginosa PAO1 A biofilm harboring duplication mutation at nucleotide 333 in nfxB gene selected at 0.5 ug/ml of azithromycin by Etest method; type: functional
Pseudomonas aeruginosa [40] = test: Antimicrobial activity against mutS::lox-deficient Pseudomonas aeruginosa PAOMSB biofilm harboring nfxB C116T mutant gene selected at 4 ug/ml of azithromycin after 5 passages by Etest method; type: functional
Pseudomonas aeruginosa [41] = test: Antimicrobial activity against mutS::lox-deficient Pseudomonas aeruginosa PAOMS biofilm by Etest method; type: functional
Pseudomonas aeruginosa [42] = test: Antimicrobial activity against mucA::lox, mutS::lox-deficient Pseudomonas aeruginosa PAOMSAA biofilm harboring nfxB C89T mutant gene selected at 0.5 ug/ml of azithromycin after 3 passages by Etest method; type: functional
Pseudomonas aeruginosa [43] = test: Antimicrobial activity against mucA::lox, mutS::lox-deficient Pseudomonas aeruginosa PAOMSAA biofilm harboring nfxB T77C mutant gene selected at 4 ug/ml of azithromycin after 3 passages by Etest method; type: functional
Pseudomonas aeruginosa [44] = test: Antimicrobial activity against mucA::lox, mutS::lox-deficient Pseudomonas aeruginosa PAOMSAB biofilm harboring nfxB C25T mutant gene selected at 1 ug/ml of azithromycin after 2 passages by Etest method; type: functional
Pseudomonas aeruginosa [45] = test: Antimicrobial activity against mutS::lox-deficient Pseudomonas aeruginosa PAOMSB biofilm harboring nfxB T41C mutant gene selected at 4 ug/ml of azithromycin after 3 passages by Etest method; type: functional
Pseudomonas aeruginosa [46] = test: Antimicrobial activity against mutS::lox-deficient Pseudomonas aeruginosa PAOMSA biofilm harboring nfxB T86C mutant gene selected at 4 ug/ml of azithromycin after 3 passages by Etest method; type: functional
Pseudomonas aeruginosa [47] = test: Antimicrobial activity against mucA::lox, mutS::lox-deficient Pseudomonas aeruginosa PAOMSAA biofilm harboring nfxB C89T mutant gene selected at 4 ug/ml of azithromycin after 6 passages by Etest method; type: functional
Pseudomonas aeruginosa [48] = test: Antimicrobial activity against mucA::lox, mutS::lox-deficient Pseudomonas aeruginosa PAOMSA biofilm by Etest method; type: functional
Pseudomonas aeruginosa [49] = test: Antimicrobial activity against mutS::lox-deficient Pseudomonas aeruginosa PAOMSB biofilm harboring nfxB T380C mutant gene selected at 0.5 ug/ml of azithromycin after 2 passages by Etest method; type: functional
Pseudomonas aeruginosa [50] = test: Antimicrobial activity against mutS::lox-deficient Pseudomonas aeruginosa PAOMSB biofilm harboring nfxB T562C mutant gene selected at 4 ug/ml of azithromycin after 4 passages by Etest method; type: functional
Pseudomonas aeruginosa [51] = test: Antimicrobial activity against mutS::lox-deficient Pseudomonas aeruginosa PAOMSA biofilm harboring nfxB G461A mutant gene selected at 4 ug/ml of azithromycin after 5 passages by Etest method; type: functional
Pseudomonas aeruginosa [52] = test: Antimicrobial activity against mucA::lox-deficient Pseudomonas aeruginosa PAOMAA biofilm harboring nfxB C25T mutant gene selected at 1 ug/ml of azithromycin after 2 passages by Etest method; type: functional
Pseudomonas aeruginosa [53] = test: Antimicrobial activity against mucA::lox-deficient Pseudomonas aeruginosa PAOMAB biofilm harboring nfxB G125T mutant gene selected at 0.5 ug/ml of azithromycin after 1 passages by Etest method; type: functional

CC[C@H]1OC(=O)[C@H](C)[C@@H](O[C@H]2C[C@@](C)(OC)[C@@H](O)[C@H](C)O2)[C@H](C)[C@@H](O[C@@H]2O[C@H](C)C[C@H](N(C)C)[C@H]2O)[C@](C)(O)C[C@@H](C)CN(C)[C@H](C)[C@@H](O)[C@]1(C)O [AZITHROMYCIN]
active: Activity (Pseudomonas aeruginosa [2]) | Activity (Pseudomonas aeruginosa [19])
5000: fold change (FC) (Pseudomonas aeruginosa [12])
128 µg/mL: MIC (Pseudomonas aeruginosa [4]) | MIC (Pseudomonas aeruginosa [7]) | MIC (Pseudomonas aeruginosa [17]) | MIC (Pseudomonas aeruginosa [20])
1: fold change (FC) (Pseudomonas aeruginosa [1]) | fold change (FC) (Pseudomonas aeruginosa [10])
inactive: Activity (Pseudomonas aeruginosa [8]) | Activity (Pseudomonas aeruginosa [9]) | Activity (Pseudomonas aeruginosa [11]) | Activity (Pseudomonas aeruginosa [13]) | Activity (Pseudomonas aeruginosa [14])
2: log10cfu (Pseudomonas aeruginosa [6]) | log10cfu (Pseudomonas aeruginosa [15]) | log10cfu (Pseudomonas aeruginosa [18])
50: fold change (FC) (Pseudomonas aeruginosa [3])
4: log10cfu (Pseudomonas aeruginosa [5]) | log10cfu (Pseudomonas aeruginosa [16])

NC[C@H]1O[C@H](O[C@H]2[C@H](O)[C@@H](O[C@H]3O[C@H](CO)[C@@H](O)[C@H](N)[C@H]3O)[C@H](N)C[C@@H]2N)[C@H](N)C[C@@H]1O [TOBRAMYCIN]
0.19 µg/mL: MIC (Pseudomonas aeruginosa [39])
1 µg/mL: MIC (Pseudomonas aeruginosa [21]) | MIC (Pseudomonas aeruginosa [23]) | MIC (Pseudomonas aeruginosa [25]) | MIC (Pseudomonas aeruginosa [29]) | MIC (Pseudomonas aeruginosa [32]) | MIC (Pseudomonas aeruginosa [38]) | MIC (Pseudomonas aeruginosa [45]) | MIC (Pseudomonas aeruginosa [49])
2 µg/mL: MIC (Pseudomonas aeruginosa [34])
1.5 µg/mL: MIC (Pseudomonas aeruginosa [22]) | MIC (Pseudomonas aeruginosa [27]) | MIC (Pseudomonas aeruginosa [31]) | MIC (Pseudomonas aeruginosa [41]) | MIC (Pseudomonas aeruginosa [43]) | MIC (Pseudomonas aeruginosa [48]) | MIC (Pseudomonas aeruginosa [50]) | MIC (Pseudomonas aeruginosa [51])
0.75 µg/mL: MIC (Pseudomonas aeruginosa [26]) | MIC (Pseudomonas aeruginosa [42])
0.38 µg/mL: MIC (Pseudomonas aeruginosa [35]) | MIC (Pseudomonas aeruginosa [44]) | MIC (Pseudomonas aeruginosa [52]) | MIC (Pseudomonas aeruginosa [53])
0.25 µg/mL: MIC (Pseudomonas aeruginosa [28]) | MIC (Pseudomonas aeruginosa [36])
0.5 µg/mL: MIC (Pseudomonas aeruginosa [24]) | MIC (Pseudomonas aeruginosa [30]) | MIC (Pseudomonas aeruginosa [33]) | MIC (Pseudomonas aeruginosa [37]) | MIC (Pseudomonas aeruginosa [40]) | MIC (Pseudomonas aeruginosa [46]) | MIC (Pseudomonas aeruginosa [47])

C[C@H]1[C@H](NC(=O)/C(=N\OC(C)(C)C(=O)O)c2csc(N)n2)C(=O)N1S(=O)(=O)O [AZTREONAM]
2 µg/mL: MIC (Pseudomonas aeruginosa [22]) | MIC (Pseudomonas aeruginosa [25]) | MIC (Pseudomonas aeruginosa [27]) | MIC (Pseudomonas aeruginosa [29]) | MIC (Pseudomonas aeruginosa [31]) | MIC (Pseudomonas aeruginosa [34]) | MIC (Pseudomonas aeruginosa [38]) | MIC (Pseudomonas aeruginosa [41]) | MIC (Pseudomonas aeruginosa [43]) | MIC (Pseudomonas aeruginosa [45]) | MIC (Pseudomonas aeruginosa [48]) | MIC (Pseudomonas aeruginosa [51])
1 µg/mL: MIC (Pseudomonas aeruginosa [21]) | MIC (Pseudomonas aeruginosa [23]) | MIC (Pseudomonas aeruginosa [24]) | MIC (Pseudomonas aeruginosa [33]) | MIC (Pseudomonas aeruginosa [37]) | MIC (Pseudomonas aeruginosa [42]) | MIC (Pseudomonas aeruginosa [46]) | MIC (Pseudomonas aeruginosa [47])
0.75 µg/mL: MIC (Pseudomonas aeruginosa [26]) | MIC (Pseudomonas aeruginosa [28]) | MIC (Pseudomonas aeruginosa [30]) | MIC (Pseudomonas aeruginosa [32]) | MIC (Pseudomonas aeruginosa [39]) | MIC (Pseudomonas aeruginosa [40]) | MIC (Pseudomonas aeruginosa [44]) | MIC (Pseudomonas aeruginosa [49]) | MIC (Pseudomonas aeruginosa [52])
1.5 µg/mL: MIC (Pseudomonas aeruginosa [50])
0.5 µg/mL: MIC (Pseudomonas aeruginosa [35]) | MIC (Pseudomonas aeruginosa [36]) | MIC (Pseudomonas aeruginosa [53])
